Assay results published in PubChem BioAssay (NCI).
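Step 1: Grow cells in 96-well plates. Step 2: Expose to compound for 48 hours at 5 concentrations. Step 3: Interpolate endpoints linearly; if unreached, use highest concentration. The concentration for full growth arrest is given as TGI.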

Columns and labels:
Test in all cases: NCI tumour cell line growth inhibition, 48 h
HOP-62 NSCLC = tested on: HOP-62 NSCLC
SF-295 CNS = tested on: SF-295 CNS
SR leukemia = tested on: SR leukemia
KM12 colon = tested on: KM12 colon
OVCAR-8 ovarian = tested on: OVCAR-8 ovarian
HOP-92 NSCLC = tested on: HOP-92 NSCLC
SW-620 colon = tested on: SW-620 colon
T-47D breast = tested on: T-47D breast
RXF 393 renal = tested on: RXF 393 renal
NCI/ADR-RES ovarian = tested on: NCI/ADR-RES ovarian
RPMI-8226 leukemia = tested on: RPMI-8226 leukemia

Measured: TGI

Cc1sc(/N=C/C2=C(O)CC(C)(C)CC2=O)nc1-c1ccccc1
> 100 µM: all assays above
